Here are results for 15 compounds from patent publication US8652799B2, “Method of detecting bioactive molecules in a fluid sample” (priority 2008, dated 2014).

By inhibition is commonly meant the change of the read-out against control, counted positive when it falls.

Like-named read-outs stand apart in the source and are kept apart here.

Assay type in all cases: cell-based
The test system of assay [1] is Anabaena sp. Kind of assay: Detection of bioactive molecules with Anabaena sp.: inhibition of photosynthetic fluorescence (Luminotox). Conditions: 1 ppm, neutral pH; for inhibition at 1 ppm: 10 min. As to the method: The photosynthetic efficiency is determined with the following formula (F2−F1)/F2. Any molecule affecting directly or indirectly the photosystems modify either F1 or F2 which modification necessarily decreases the photosynthetic efficiency. The inhibition curve of a particular molecule is determined by calculating the activity of the photosystems in the absence of the molecule and in the presence of the molecule and comparing both efficiency as follows as described in Conrad 1993:
Without Inhibitor (wi): efficiency(wi)=(F2(wi)−F1(wi)/F2(wi) With Inhibitor: Relative photosynthetic efficiency(sample)=(F2(sample)−F1(sample))/F2(wi) Percentage Efficiency: efficiency (%)=(efficiency(sample)×100)/efficiency(wi) Percentage Inhibition: Inhibition (%)=100−efficiency (%)
An Anabaena sp. culture was prepared as described in Example 3 above. As indicated in Example 3, the cyanobacteria were reactivated before testing under ambient light and at room temperature during 60 minutes.
The culture was then incubated with bioactive molecules listed in Table 1 below at concentrations of 1 ppm (except for atrazine which was used at a concentration of 1 ppb) for 10 minutes under ambient light followed by 10 minutes under green light and neutral pH. The cellular concentration was 1.0×10^7 cells/mL (100 μL of cyanobacteria within 2 mL of bioactive agent containing aqueous solution (i.e. distilled water)). Testing was performed in triplicates. The fluorescence emitted by each formulation was then measured with Luminotox™ a fluorometer that measures photosynthetic activity.

For assay [2], the system named is Chlorella vulgaris. As to the method:
The algae concentration was 5×10^6 cells/mL (100 μL of algae within 2 mL of aqueous solution (i.e. distilled water)) containing the substance to detect at indicated concentrations. For each substances, 5 concentrations in triplicates were tested. The TOXSTAT™ software was used to calculate from inhibition values and standard deviations obtained, the maximum concentration without observable effect and the minimal concentration with observable effects. The threshold was calculated with the following formula: (maximum concentration without observable effect x minimal concentration with observable effects)^1/2 (See Table 2 below). The temperature was controlled by a thermostatic bath.
(§1) The detection threshold was obtained with the geometric mean. It was calculated with the following formula: Detection threshold=(CSEO×CMEO)^1/2 where
(§2) CMEO=minimal concentration resulting in a detectable inhibition of the algae efficacy.
(§3) CSEO and CMEO were estimated by a variance analysis ANNOVA™ followed by a Dunnett multiple comparison by comparing the mean efficacy of each tested concentration with the control mean. Calculations were performed with TOXSTAT™ (Version 3.5).

Assay [3] deals with Dunaliella tertiolecta. Conditions: 15 min. green light exposition at room temperature. As to the method:
as §1, §2, §3
A Dunaliella tertiolecta culture was prepared as described in Example 2 above. As indicated in Example 2, the algae were reactivated before testing under ambient light and at room temperature during 45 minutes.
The algae formulations were then incubated for 15 minutes with water containing one of the various contaminants listed in Table 2 below at neutral pH under green light and at room temperature. The algae concentration was 350 000 cells/mL (500 μL of algae within 2 mL of aqueous solution (i.e. distilled water) containing substance to detect at indicated concentrations). For each substances, 5 concentrations in triplicates were tested. The TOXSTAT™ software was used to calculate from inhibition values and standard deviations obtained, the maximum concentration without observable effect and the minimal concentration with observable effects (See Table 2 below). The temperature was controlled by a thermostatic bath. Tests were performed in triplicates. The fluorescence emitted by each formulation was then measured with Luminotox™, a fluorometer that measures photosynthetic activity and detection threshold determined as described in the Example above.

The test system of assay [4] is Chlorella vulgaris. As to the method: A Chlorella vulgaris culture was prepared as described in Example 1 above. As indicated in Example 1, the algae were reactivated before testing under ambient light and at room temperature during 90 minutes.
The formulation was then incubated under ambient light at 35° C. and at neutral pH with cadmium, copper, chromium, zinc, nickel, or lead, at indicated concentrations at incubation times varying between 15 minutes and 120 minutes. (FIGS. 9 to 12). The formulations were tested without additives or with 1 ppm cadmium, 0.1 ppm copper or 0.25 ppm copper as additive. The cellular concentration was 2.5×10^6 cells/mL (50 μL of algae within 2 mL of metal containing aqueous solution (i.e. distilled water)). Testing was performed in triplicates. The fluorescence emitted by each formulation was then measured with Luminotox™, a fluorometer that measures photosynthetic activity.
The source holds these as a separate data set.

Assay [5] concerns Chlorella vulgaris. Kind of assay: Stability of F2 fluorescence of Chlorella vulgaris incubated with additives. As to the method: F2 fluorescence levels produced by Chlorella vulgaris prepared as described in Example 1 above was measured after incubation with additives tested above, namely cadmium (0.5 ppm), cadmium (1 ppm), copper (0.1 ppm) and copper (0.25 ppm). As may be seen in FIG. 8, F2 fluorescence was stable after up to 120 minutes of incubation for each of these additives.

The subject of assay [6] is Chlorella vulgaris. In words: Effect of pH on detection of ammoniacal nitrogen with Chlorella vulgaris. Conditions: for Concentration of NH3 at which 20% inhibition was achieved: 10 min green light, room temperature. As to the method: A Chlorella vulgaris culture was prepared as described in Example 1 above. As indicated above, the algae were reactivated before testing during 90 minutes under ambient light and at room temperature.
The culture was then incubated with ammoniacal nitrogen for 10 minutes under green light and at room temperature. The desired pH was achieved by adding NaOH to a glycine 20 mM buffer. The cellular concentration of the algae was 5×10^6 cells/mL of solution (100 μL algae in 2 mL of ammoniacal nitrogen containing aqueous solution (i.e. distilled water)). Testing was performed in triplicates. The fluorescence emitted by each formulation was then measured with Luminotox™, a fluorometer that measures photosynthetic activity. Although the Luminotox™ was used in Examples presented herein, any fluorometer able to measure […] can be used in accordance with the present invention.

[7] abbreviates: 10 min ambient light followed by 10 min green light.
The mark [8] stands for this setting: 10 min ambient light, 1.0×10^7 cells/mL.
The mark [9] stands for this setting: 10 min ambient light followed by 10 min green light, read-out: Inhibition obtained at 1 ppm (followed by 10 min green light).
Setting [10] is: 10 min ambient light, 1.0×10^7 cells/mL, read-out: Inhibition obtained at 1 ppm (10 min ambiant light).
Where [11] appears, read: 10-15 min. exposition to ambiant light at 35° C., neutral pH (pH 7), 5×10^6 cells/mL.
The mark [12] stands for this setting: neutral pH (pH 7), 350 000 cells/mL.

`CNC(=O)O/N=C/C(C)(C)SC` [aldicarbe]: the “Inhibition obtained at 1 ppm (followed by 10 min green light)” value in assay [1] (setting [7]) is recorded as 30%. The “Inhibition obtained at 1 ppm (10 min ambiant light)” value in assay [1] (setting [8]) came out at 0%.

With `CC(C)N1C(=O)c2ccccc2NS1(=O)=O` [bentazone], the inhibition at 1 ppm in assay [1] (setting [9]) is 28%; in assay [1] (setting [10]) it was 0%.

Regarding Mercury [Hg], in assay [2] (setting [11]), the Detection threshold was determined as 0.22 ppm.

`CCOP(=S)(OCC)Oc1nc(Cl)c(Cl)cc1Cl` [chlorpyrifos]: the Detection threshold in assay [3] (setting [12]) and in assay [2] (setting [11]) was 1 ppm throughout. The inhibition at 1 ppm in assay [1] (setting [9]) came to 10%; in assay [1] (setting [10]) it was 0%.

With `O=C(O)CNCP(=O)(O)O` [glyphosate], the Detection threshold in assay [3] (setting [12]) is recorded as 50 ppm; in assay [2] (setting [11]) it was 100 ppm. Besides, the values for the inhibition at 1 ppm in assay [1] (setting [9]) and in assay [1] (setting [10]) were 7% and 0%, respectively.

On to `COP(=O)(OC)O/C(C)=C/C(=O)N(C)C` [dicrotophos], for which the Detection threshold in assay [3] (setting [12]) is given as 235 ppm. Also, the values for the inhibition at 1 ppm in assay [1] (setting [9]) and in assay [1] (setting [10]) were 17% and 2%, respectively.

Turning to `[Cr]` [Cr, Chrome], the Detection result in assay [4] (0.1 ppm, 60 minutes of incubation, without additive) is “detected although weakly”.

Take `[Ni]` [nickel]: the Detection result in assay [4] (1 ppm, 120 minutes of incubation) was “weakly detected”.

`CCc1cccc(C)c1N(C(=O)CCl)C(C)COC` (stereo not shown) [metolachlor]: the values for the inhibition at 1 ppm in assay [1] (setting [9]) and in assay [1] (setting [10]) were 22% and 0%, respectively.

`CCOC(=O)CC(SP(=S)(OC)OC)C(=O)OCC` (stereo not shown) [malathion] registered a Detection threshold in assay [3] (setting [12]) of 50 ppm. The inhibition at 1 ppm in assay [1] (setting [9]) was 17%; in assay [1] (setting [10]), 0%.

As to gramicidine, in assay [1] (setting [7]), the “Inhibition obtained at 1 ppm (followed by 10 min green light)” value is listed as 15%. In addition, the “Inhibition obtained at 1 ppm (10 min ambiant light)” value in assay [1] (setting [8]) is listed as 0%.

Turning to cyanure, the Detection threshold in assay [2] (setting [11]) is listed as 0.16 ppm. Moreover, the “Inhibition obtained at 1 ppm (followed by 10 min green light)” value in assay [1] (setting [7]) is recorded as 16%. For the same compound, in assay [1] (setting [8]), the “Inhibition obtained at 1 ppm (10 min ambiant light)” value is 0%.

For `[Cd]` [Cd, Cadmium], the Detection entry in assay [4] (1 ppm alone, 15 minutes of incubation) is “not detected”; in assay [4] (1 ppm, 60 minutes of incubation, without additive), “detected although weakly”. Further, the Detection threshold in assay [2] (setting [11]) worked out at 0.3 ppm. Further, the “F2 fluorescence over time” value in assay [5] (0.5 ppm, up to 120 minutes of incubation) is listed as “stable”; in assay [5] (1 ppm, after 120 minutes of incubation) it was “decrease of fluorescence”.

As for `CN(C)C(=O)Nc1ccc(Cl)c(Cl)c1` [Diuron], the Detection threshold was 0.002 ppm in assay [3] (setting [12]); 0.006 ppm in assay [2] (setting [11]); under 0.0005 ppm in assay [2] (10-15 min. green light exposition at room temperature, neutral pH (pH 7), 5×10^6 cells/mL); “lower than 0.0005 ppm” in assay [2] (10-15 min. green light exposition at room temperature, neutral pH (pH 7), 5×10^6 cells/mL, listed as diuron).

Ammonia nitrogen: the Detection threshold in assay [3] (pH 11) was determined as 1 ppm at pH 11; in assay [2] (pH 11, 10-15 min. exposition to ambiant light at 35° C.) it was 1 ppm at pH 11; in assay [2] (pH 11, 10-15 min. green light exposition at room temperature), 1 ppm at pH 11; in assay [6] (pH up to 11) it was 1 ppm. Besides, the “Concentration at which the compound is detected” value in assay [6] (neutral pH) is 100 ppm. The “Concentration of NH3 at which 20% inhibition was achieved” value in assay [6] (pH 7) is 100 ppm; in assay [6] (pH 9), 5 ppm; in assay [6] (pH 11) it was “lower than 2 ppm”; in assay [6] (pH 12), “lower than 2 ppm”.
